Here are results for eight molecules from patent US9175045B2, “Peptidomimetic macrocycles” (Aileron Therapeutics, Inc., priority 2008, dated 2015).

Numbered stars: 1 amine (or outer) side, 2 acyl side, 3 side chain; on linkers, the order of the positions; unused ones are H or OH. Bridge positions count the residues as written; N and C are the ends. Square brackets hold non-standard residues; d marks the D form. Peptide text beside a SMILES is read from it. * marks the point of attachment. ξ: configuration not given here. ξαMeNle(6-ylidene) = CC(CCCC=[*:3])(N[*:1])C(=O)[*:2]; S5 = C=CCCC[C@](C)(N)C(=O)O; Nle = CCCC[C@H](N)C(=O)O; Aib = CC(C)(N)C(=O)O; Propionyl = CCC(=O)*

The test system of one data set is Jurkat cell line. The class given is cell-based. As to conditions: for EC50: 24 h; for efficacy in serum-free media and in the presence of serum: statement in words. How it is done: Jurkat cell line (Clone E6-1, ATCC catalog #TIB-152) is grown in specific serum-supplemented media (RPMI-1640, Invitrogen catalog #22400) as recommended by ATCC. A day prior to the initiation of the study, cells are split at optimal cell density (2×10^5-5×10^5 cells/ml) to assure actively dividing cells. The next day, cells are washed twice in serum-free Opti-MEM media (Invitrogen, Catalog #51985) and cells are then plated at optimal cell density (10,000 cells/well) in 50 μl Opti-MEM media or Opti-MEM supplemented with 2% or 10% human serum (Bioreclamation, catalog #HMSRM) in 96-well white tissue culture plate (Nunc, catalog #136102).
For serum free experiment, crosslinked polypeptides are diluted from 2 mM stocks (100% DMSO) in sterile water to prepare 400 μM working solutions. The crosslinked polypeptides and controls are diluted 10-fold first and then serially two-fold diluted in Opti-MEM in dosing plates to provide concentrations of between 1.2 and 40 μM. 50 μl of each dilution is then added to the appropriate wells of the test plate to achieve final concentrations of the polypeptides equal to between 0.6 to 20 μM. For studies using Opti-MEM supplemented with human serum (Bioreclamation, catalog #HMSRM), crosslinked polypeptides are diluted from 10 mM stocks (100% DMSO) in sterile water to prepare 2 mM working solutions. The crosslinked polypeptides and controls are diluted 10-fold first and then serially two-fold diluted in Opti-MEM in the presence of 2% or 10% of human serum to provide concentrations of the polypeptides equal to between 6.25 to 200 μM in dosing plates. 50 μl of each dilution is then added to the appropriate wells of the test plate to achieve final concentrations of the polypeptides equal to between 3.125 to 100 μM. Controls included wells without polypeptides containing the same concentration of DMSO as the wells containing the macrocycles, wells containing 0.1% Triton X-100 and wells containing no cells. Plates are incubated for 24 hours at 37° C. in humidified 5% CO2 atmosphere.
At the end of the incubation period, CellTiter-Glo assay is performed according to manufacturer's instructions (Promega, catalog #G7573) and luminescence is measured using Synergy HT Plate reader (BioTek). Luminescence correlates with viability. A reduction in viability reflects the ability of the test compounds to induce programmed cell death via BAX and BAK.

The target in a further data set is human serum proteins. In words: Apparent affinity to human serum proteins (Kd*) by EC50 shift analysis. In kind it is in vitro ADME. The settings on record: nonlinear regression of EC50 shift with serum, n = 1, P = 700 μM for 100% serum. From the text:
The measurement of apparent Kd values for serum protein by EC50 shift analysis provides a simple and rapid means of quantifying the propensity of experimental compounds to bind HSA and other serum proteins. A linear relationship exists between the apparent EC50 in the presence of serum protein (EC′50) and the amount of serum protein added to an in vitro assay. This relationship is defined by the binding affinity of the compound for serum proteins, expressed as Kd*. This term is an experimentally determined, apparent dissociation constant that may result from the cumulative effects of multiple, experimentally indistinguishable, binding events. The form of this relationship is presented here in Eq. 0.3, and its derivation can be found in Copeland et al, Biorg. Med. Chem. Lett. 2004, 14:2309-2312. [formula] A significant proportion of serum protein binding can be ascribed to drug interactions with HSA, due to the very high concentration of this protein in serum (35-50 g/L or 530-758 μM). To calculate the Kd value for these compounds we have assumed that the shift in EC50 upon protein addition can be ascribed fully to the HSA present in the added serum, where P is 700 μM for 100% serum, P is 70 μM for 10% serum, etc. We further made the simplifying assumption that all of the compounds bind HSA with a 1:1 stoichiometry, so that the term n in Eq. (0.3) is fixed at unity. With these parameters in place we calculated the Kd* value for each stapled peptide from the changes in EC50 values with increasing serum (and serum protein) concentrations by nonlinear regression analysis of Eq. 0.3 using Mathematica 4.1 (Wolfram Research, Inc., www.wolfram.com). EC′50 values in whole blood are estimated by setting P in Eq. 0.3 to 700 μM [HSA].

Data set [1] can be described thus: Estimated free fraction in blood, calculated from Kd* with [HSA]total 700 μM. In kind it is in vitro ADME. The settings on record: human; [HSA]total set at 700 μM; read-out: Free Fraction est. in blood. How it is done:
The free fraction in blood is estimated per the following equation, as derived by Trainor, Expert Opin. Drug Disc., 2007, 2(1):51-64, where [HSA]total is set at 700 μM. [formula]

Data set [2] deals with T1, human serum proteins (binding ascribed fully to human serum albumin, HSA) (human, UniProt P02768 25-609).
T1 construct: No purified HSA was used
The data set can be described thus: apparent Kd* by EC50 shift analysis: Jurkat viability EC50 at 0, 2 and 10% human serum, fit assuming 1:1 binding to HSA.

The target in data set [3] is T1, human serum proteins (binding ascribed …). In words: cell-based or functional assay.

T1 sequence (P02768 25-609 limits assumed): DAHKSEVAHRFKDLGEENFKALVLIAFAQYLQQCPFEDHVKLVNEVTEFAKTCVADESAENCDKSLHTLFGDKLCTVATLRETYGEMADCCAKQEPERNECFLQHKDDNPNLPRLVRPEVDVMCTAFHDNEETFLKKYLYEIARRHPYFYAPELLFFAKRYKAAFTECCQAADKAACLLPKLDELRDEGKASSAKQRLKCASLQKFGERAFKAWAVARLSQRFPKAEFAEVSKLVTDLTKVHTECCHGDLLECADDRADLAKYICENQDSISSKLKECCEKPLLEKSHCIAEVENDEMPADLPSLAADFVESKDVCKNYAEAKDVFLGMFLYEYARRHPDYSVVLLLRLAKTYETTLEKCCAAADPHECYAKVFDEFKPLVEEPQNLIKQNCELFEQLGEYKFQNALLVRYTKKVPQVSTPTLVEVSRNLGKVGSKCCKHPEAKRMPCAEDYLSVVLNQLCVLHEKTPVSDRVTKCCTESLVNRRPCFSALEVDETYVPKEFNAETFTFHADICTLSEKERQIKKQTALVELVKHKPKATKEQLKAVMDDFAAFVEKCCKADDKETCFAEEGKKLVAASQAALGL

`CCCC[C@H](NC(=O)C1(C)CCCC=CCCCC(C)(NC(=O)[C@H](C)NC(=O)[C@H](CC(C)C)NC(=O)[C@H](Cc2c[nH]cn2)NC(=O)[C@H](CCCNC(=N)N)NC(=O)[C@H](C)NC(=O)[C@@H](NC(=O)[C@H](CC(N)=O)NC(=O)[C@H](CCCNC(=N)N)NC(=O)[C@@H](NC(=O)[C@@H](NC(=O)[C@H](CC(=O)O)NC(C)=O)[C@@H](C)CC)[C@@H](C)CC)[C@@H](C)CC)C(=O)N[C@@H](C(C)C)C(=O)NCC(=O)N[C@@H](CC(=O)O)C(=O)N1)C(=O)N[C@@H](CC(=O)O)C(=O)N[C@@H](CCCNC(=N)N)C(=O)N[C@@H](CO)C(=O)N[C@H](C(N)=O)[C@@H](C)CC` (some centres unmarked) [Compound 1, Ac-DIIRNIARHLA$VGD$NleDRSI-NH2] (Ac-DIIRNIARHLA[ξαMeNle(6-ylidene)]VGD[ξαMeNle(6-ylidene)][Nle]DRSI-NH2; staple 12-16): in the data set with Jurkat cell line, the EC50 (as a rule, the concentration giving half of the maximal effect) worked out at 1200 nM; the “efficacy in serum-free media and in the presence of serum” value is “high efficacy in serum-free media, which is substantially reduced in the presence of serum”. Also, on human serum proteins, the Kd was less than 100 nM. Besides, the fraction unbound in data set [1] is less than 0.001.
For the molecule `CCCC[C@H](NC(=O)C1(C)CCCC=CCCCC(C)(NC(=O)[C@H](C)NC(=O)[C@H](CC(C)C)NC(=O)[C@H](Cc2c[nH]cn2)NC(=O)[C@H](CCCNC(=N)N)NC(=O)[C@H](C)NC(=O)[C@@H](NC(=O)[C@H](CC(N)=O)NC(=O)[C@H](CCCNC(=N)N)NC(=O)[C@H](C)NC(=O)[C@H](C)NC(=O)[C@H](CC(=O)O)NC(C)=O)[C@@H](C)CC)C(=O)N[C@@H](C(C)C)C(=O)NC(C)(C)C(=O)N[C@@H](CC(=O)O)C(=O)N1)C(=O)N[C@@H](C)C(=O)N[C@@H](CCCNC(=N)N)C(=O)N[C@@H](CO)C(=O)N[C@H](C(N)=O)[C@@H](C)CC` (some centres unmarked) [Compound 2, Ac-DAARNIARHLA$VAibD$NleARSI-NH2] (Ac-DAARNIARHLA[ξαMeNle(6-ylidene)]V[Aib]D[ξαMeNle(6-ylidene)][Nle]ARSI-NH2; staple 12-16), in the data set on Jurkat cell line, the EC50 turned out to be 1600 nM. Moreover, the Kd on human serum proteins was less than 100 nM. Further, the fraction unbound in data set [1] was less than 0.001.
The like results for `CCCC[C@H](NC(=O)C1(C)CCCC=CCCCC(C)(NC(=O)[C@H](C)NC(=O)[C@H](CC(C)C)NC(=O)[C@H](Cc2c[nH]cn2)NC(=O)[C@H](CCCNC(=N)N)NC(=O)[C@H](C)NC(=O)[C@@H](NC(=O)[C@H](CC(N)=O)NC(=O)[C@H](CCCNC(=N)N)NC(=O)[C@H](C)NC(=O)[C@@H](NC(=O)[C@H](CC(=O)O)NC(C)=O)[C@@H](C)CC)[C@@H](C)CC)C(=O)N[C@@H](C(C)C)C(=O)NC(C)(C)C(=O)N[C@@H](CC(=O)O)C(=O)N1)C(=O)N[C@@H](C)C(=O)N[C@@H](CCCNC(=N)N)C(=O)N[C@@H](CO)C(=O)N[C@H](C(N)=O)[C@@H](C)CC` (some centres unmarked) [Compound 3, Ac-DIARNIARHLA$VAibD$NleARSI-NH2] (Ac-DIARNIARHLA[ξαMeNle(6-ylidene)]V[Aib]D[ξαMeNle(6-ylidene)][Nle]ARSI-NH2; staple 12-16) were, in that order, 1200 nM, less than 100 nM and less than 0.001.
Taken in the same sequence, the figures for `CCCC[C@H](NC(=O)C1(C)CCCC=CCCCC(C)(NC(=O)[C@H](C)NC(=O)[C@H](CC(C)C)NC(=O)[C@H](Cc2c[nH]cn2)NC(=O)[C@H](CCCNC(=N)N)NC(=O)[C@H](C)NC(=O)[C@@H](NC(=O)[C@H](CC(N)=O)NC(=O)[C@H](CCCNC(=N)N)NC(=O)[C@@H](NC(=O)[C@H](C)NC(=O)[C@H](CC(=O)O)NC(C)=O)[C@@H](C)CC)[C@@H](C)CC)C(=O)N[C@@H](C(C)C)C(=O)NC(C)(C)C(=O)N[C@@H](CC(=O)O)C(=O)N1)C(=O)N[C@@H](C)C(=O)N[C@@H](CCCNC(=N)N)C(=O)N[C@@H](CO)C(=O)N[C@H](C(N)=O)[C@@H](C)CC` (some centres unmarked) [Compound 4, Ac-DAIRNIARHLA$VAibD$NleARSI-NH2] (Ac-DAIRNIARHLA[ξαMeNle(6-ylidene)]V[Aib]D[ξαMeNle(6-ylidene)][Nle]ARSI-NH2; staple 12-16) were 1000 nM, less than 100 nM and less than 0.001.
The like results for `CCC(=O)N[C@@H](CCCNC(=N)N)C(=O)N[C@@H](CC(N)=O)C(=O)N[C@H](C(=O)NC(C)(C)C(=O)N[C@@H](CCCNC(=N)N)C(=O)N[C@@H](Cc1c[nH]cn1)C(=O)N[C@@H](CC(C)C)C(=O)NC(C)(C)C(=O)NC1(C)CCCC=CCCCC(C)(C(=O)N[C@@H](C)C(=O)N[C@@H](C)C(=O)N[C@@H](CCCNC(=N)N)C(=O)N[C@@H](CO)C(=O)N[C@H](C(N)=O)[C@@H](C)CC)NC(=O)[C@H](CC(=O)O)NC(=O)C(C)(C)NC(=O)[C@H](C(C)C)NC1=O)[C@@H](C)CC` (some centres unmarked) [Compound 9, Pr-RNIAibRHLAib$VAibD$AARSI-NH2] (Propionyl-RNI[Aib]RHL[Aib][ξαMeNle(6-ylidene)]V[Aib]D[ξαMeNle(6-ylidene)]AARSI-NH2; staple 9-13) were, in that order, 1100 nM, 2900 nM and 0.0048.
Take `CC[C@H](C)[C@H](NC(C)=O)C(=O)N[C@@H](Cc1c[nH]c2ccccc12)C(=O)N[C@H](C(=O)N[C@@H](C)C(=O)N[C@@H](CCC(N)=O)C(=O)N[C@@H](CCC(=O)O)C(=O)N[C@@H](CC(C)C)C(=O)N[C@@H](CCCNC(=N)N)C(=O)NC1(C)CCCC=CCCCC(C)(C(=O)N[C@@H](Cc2ccccc2)C(=O)N[C@@H](CC(N)=O)C(=O)N[C@@H](C)C(=O)N[C@@H](Cc2ccc(O)cc2)C(=O)N[C@@H](Cc2ccc(O)cc2)C(=O)N[C@@H](C)C(=O)N[C@@H](CCCNC(=N)N)C(=O)N[C@@H](CCCNC(=N)N)C(N)=O)NC(=O)[C@H](CC(=O)O)NC(=O)CNC(=O)[C@H]([C@@H](C)CC)NC1=O)[C@@H](C)CC` (some centres unmarked) [Compound 10, Ac-IWIAQELR$IGD$FNAYYARR-NH2]: in the data set on Jurkat cell line, the EC50 was 1300 nM; the “efficacy in serum-free media and in the presence of serum” value is on record as “high efficacy in serum-free media, which is substantially reduced in the presence of serum”. Also, the Kd on human serum proteins is less than 100 nM. Further, in data set [1], the fraction unbound is less than 0.001.
Consider `CC[C@H](C)[C@H](NC(C)=O)C(=O)N[C@@H](Cc1c[nH]c2ccccc12)C(=O)N[C@H](C(=O)N[C@@H](C)C(=O)N[C@@H](CCC(N)=O)C(=O)N[C@@H](CCC(N)=O)C(=O)N[C@@H](CC(C)C)C(=O)N[C@@H](CCCNC(=N)N)C(=O)NC1(C)CCCC=CCCCC(C)(C(=O)N[C@@H](Cc2ccccc2)C(=O)N[C@@H](CC(N)=O)C(=O)N[C@@H](C)C(=O)N[C@@H](Cc2ccc(O)cc2)C(=O)N[C@@H](Cc2ccc(O)cc2)C(=O)N[C@@H](C)C(=O)N[C@@H](CCCNC(=N)N)C(=O)N[C@@H](CCCNC(=N)N)C(N)=O)NC(=O)[C@H](CC(=O)O)NC(=O)CNC(=O)[C@H]([C@@H](C)CC)NC1=O)[C@@H](C)CC` (some centres unmarked) [Compound 11, Ac-IWIAQQLR$IGD$FNAYYARR-NH2], for which, in the data set on Jurkat cell line, the EC50 came to 1200 nM. Besides, the Kd on human serum proteins was determined as 1100 nM. Moreover, the fraction unbound in data set [1] is 0.0018.
As to Ac-ALRRRI[S5]LCA[S5]HHST-NH2 (staple 7-11, also called hMAML) [Compound 19 (crosslinked polypeptide derived from human MAML peptide sequence)], the Kd in data set [2] was found to be 600 nM. Also, in data set [3], the “2% serum EC50 (Jurkat cell viability, CellTiter-Glo)” value amounted to 14700 nM and the “10% serum EC50 (Jurkat cell viability, CellTiter-Glo)” value is 57500 nM.
